Values belong to the compound of their own block, whether it stands above or below them.
Legend:
[1] = system: POLCO Polygonum convolvulus; assay: Pre-emergence crop and weed test (Example 16); assay type: in vivo; conditions: 15 g/ha, after 20 days
Description: (§1) Seeds of crop and representative weed species were sown in standard soil in pots. After cultivation for 1 day under controlled conditions in a glasshouse (at 22/16° C., day/night; 16 hours light; 65% humidity), the plants were sprayed. The spray solution was prepared by dissolving the technical active ingredient in acetone containing 10.56 wt % Emulsogen EL, 42.22 wt % N-methylpyrrolidone and 2.22 wt % DPG-monoethyl ether to give a 5% stock solution. This was then diluted with water containing 0.2% (v/v) of the adjuvant X-77 to give the desired treatment concentration.
(§2) The test plants were then grown on under controlled conditions in a glasshouse (at 22/16° C., day/night; 16 hours light; 65% humidity) and watered twice daily. After 20 days the test was evaluated (100=total damage to plant; 0=no damage to plant).
(§3) Species as for Post-Emergence Test.

[2] = system: AMARE Amaranthus retroflexus; assay: Pre-emergence crop and weed test (Example 16); assay type: in vivo; conditions: 15 g/ha, after 20 days
Description: as §1, §2, §3

[3] = system: XANST Xanthium strumarium; assay: Pre-emergence crop and weed test (Example 16); assay type: in vivo; conditions: 15 g/ha, after 20 days
Description: as §1, §2, §3

[4] = system: IPOHE Ipomoea hederacea; assay: Pre-emergence crop and weed test (Example 16); assay type: in vivo; conditions: 15 g/ha, after 20 days
Description: as §1, §2, §3

[5] = system: EPHHL Euphorbia heterophylla; assay: Pre-emergence crop and weed test (Example 16); assay type: in vivo; conditions: 15 g/ha, after 20 days
Description: as §1, §2, §3

[6] = system: SINAR Sinapis arvensis; assay: Pre-emergence crop and weed test (Example 16); assay type: in vivo; conditions: 15 g/ha, after 20 days
Description: as §1, §2, §3

[7] = system: GALAP Galium aparine; assay: Pre-emergence crop and weed test (Example 16); assay type: in vivo; conditions: 15 g/ha, after 20 days
Description: as §1, §2, §3

[8] = system: GLXMA Soybean; assay: Pre-emergence crop and weed test (Example 16); assay type: in vivo; conditions: 15 g/ha, after 20 days
Description: as §1, §2, §3

[9] = system: SIDSP Sida spinosa; assay: Pre-emergence crop and weed test (Example 16); assay type: in vivo; conditions: 15 g/ha, after 20 days
Description: as §1, §2, §3

[10] = system: CHEAL Chenopodium album; assay: Pre-emergence crop and weed test (Example 16); assay type: in vivo; conditions: 15 g/ha, after 20 days
Description: as §1, §2, §3

[11] = system: ABUTH Abutilon theophrasti; assay: Pre-emergence crop and weed test (Example 16); assay type: in vivo; conditions: 15 g/ha, after 20 days
Description: as §1, §2, §3

[12] = system: KCHSC Kochia scoparia; assay: Pre-emergence crop and weed test (Example 16); assay type: in vivo; conditions: 15 g/ha, after 20 days
Description: as §1, §2, §3

[13] = system: POLCO Polygonum convolvulus; assay: Post-emergence crop and weed test (Example 15); assay type: in vivo; conditions: Fallopia convolvulus, 360 h, after 15 days, read-out: Percentage damage POLCO
Method in brief: (§4)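 Scoring: percent damage at 15 days after treatment, where 100 means total damage and 0 no damage. Treatment was a foliar spray of 14-day-old potted plants, using active ingredient diluted from a 5% acetone-based emulsifiable stock into water containing 0.2% X-77 adjuvant.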

[14] = system: AMARE Amaranthus retroflexus; assay: Post-emergence crop and weed test (Example 15); assay type: in vivo; conditions: 360 h, after 15 days, read-out: Percentage damage AMARE
Method in brief: as §4

[15] = system: XANST Xanthium strumarium; assay: Post-emergence crop and weed test (Example 15); assay type: in vivo; conditions: 360 h, after 15 days, read-out: Percentage damage XANST
Method in brief: as §4

[16] = system: IPOHE Ipomoea hederacea; assay: Post-emergence crop and weed test (Example 15); assay type: in vivo; conditions: 360 h, after 15 days, read-out: Percentage damage IPOHE
Method in brief: as §4

[17] = system: EPHHL Euphorbia heterophylla; assay: Post-emergence crop and weed test (Example 15); assay type: in vivo; conditions: 360 h, after 15 days, read-out: Percentage damage EPHHL
Method in brief: as §4

[18] = system: SINAR Sinapis arvensis; assay: Post-emergence crop and weed test (Example 15); assay type: in vivo; conditions: Mutarda arvensis, 360 h, after 15 days, read-out: Percentage damage SINAR
Method in brief: as §4

[19] = system: GALAP Galium aparine; assay: Post-emergence crop and weed test (Example 15); assay type: in vivo; conditions: 360 h, after 15 days, read-out: Percentage damage GALAP
Method in brief: as §4

[20] = system: GLXMA Soybean; assay: Post-emergence crop and weed test (Example 15); assay type: in vivo; conditions: Glycine max, 360 h, after 15 days, read-out: Percentage damage GLXMA
Method in brief: as §4

[21] = system: SIDSP Sida spinosa; assay: Post-emergence crop and weed test (Example 15); assay type: in vivo; conditions: 360 h, after 15 days, read-out: Percentage damage SIDSP
Method in brief: as §4

[22] = system: ABUTH Abutilon theophrasti; assay: Post-emergence crop and weed test (Example 15); assay type: in vivo; conditions: 360 h, after 15 days, read-out: Percentage damage ABUTH
Method in brief: as §4

[23] = system: KCHSC Kochia scoparia; assay: Post-emergence crop and weed test (Example 15); assay type: in vivo; conditions: Bassia scoparia, 360 h, after 15 days, read-out: Percentage damage KCHSC
Method in brief: as §4

[24] = system: Ipomea hederaceae (IPOHE); assay: Post-emergence biological efficacy (Example 14); assay type: in vivo; conditions: Ipomoea hederacea, 312 h; post-emergence, 1,000 g/ha, after 13 days; read-out: Percentage damage IPOHE
Method in brief: (§5)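 Post-emerg. spray, 250 or 1000 g/ha; vehicle acetone/H2O 50:50 + 0.5% Tween 20. Plants 8 d old at treatment; glasshouse 24/16 °C, 14 h photoperiod, 65% humidity. Scored d13, 0–100 damage.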

[25] = system: Solanum nigrum (SOLNI); assay: Post-emergence biological efficacy (Example 14); assay type: in vivo; conditions: Solanum nigrum, 312 h; post-emergence, 1,000 g/ha, after 13 days; read-out: Percentage damage SOLNI
Method in brief: as §5

[26] = system: Amaranthus retroflexus (AMARE); assay: Post-emergence biological efficacy (Example 14); assay type: in vivo; conditions: Amaranthus retroflexus, 312 h; post-emergence, 1,000 g/ha, after 13 days; read-out: Percentage damage AMARE
Method in brief: as §5

[27] = system: Echinochloa crus-galli (ECHCG); assay: Post-emergence biological efficacy (Example 14); assay type: in vivo; conditions: Echinochloa crus-galli, 312 h; post-emergence, 1,000 g/ha, after 13 days; read-out: Percentage damage ECHCG
Method in brief: as §5

[28] = system: Setaria faberi (SETFA); assay: Post-emergence biological efficacy (Example 14); assay type: in vivo; conditions: Setaria faberi, 312 h; post-emergence, 1,000 g/ha, after 13 days; read-out: Percentage damage SETFA
Method in brief: as §5

[29] = system: Alopecurus myosuroides (ALOMY); assay: Post-emergence biological efficacy (Example 14); assay type: in vivo; conditions: Alopecurus myosuroides, 312 h; post-emergence, 1,000 g/ha, after 13 days; read-out: Percentage damage ALOMY
Method in brief: as §5

[30] = system: Solanum nigrum (SOLNI); assay: Pre-emergence biological efficacy (Example 13); assay type: in vivo; conditions: Solanum nigrum, 312 h; pre-emergence, 1,000 g/ha, after 13 days; read-out: Percentage damage SOLNI
Method in brief: (§6)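 Phytotoxicity was rated on a 0 (no damage) to 100 (total damage) scale 13 days after treatment. Test compound was sprayed at 250 or 1000 g/ha onto soil-sown pots one day after sowing, using acetone/water (50:50) with 0.5% Tween 20 diluted in water.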

[31] = system: Amaranthus retroflexus (AMARE); assay: Pre-emergence biological efficacy (Example 13); assay type: in vivo; conditions: Amaranthus retroflexus, 312 h; pre-emergence, 1,000 g/ha, after 13 days; read-out: Percentage damage AMARE
Method in brief: as §6

[32] = system: Echinochloa crus-galli (ECHCG); assay: Pre-emergence biological efficacy (Example 13); assay type: in vivo; conditions: Echinochloa crus-galli, 312 h; pre-emergence, 1,000 g/ha, after 13 days; read-out: Percentage damage ECHCG
Method in brief: as §6

[33] = system: Setaria faberi (SETFA); assay: Pre-emergence biological efficacy (Example 13); assay type: in vivo; conditions: Setaria faberi, 312 h; pre-emergence, 1,000 g/ha, after 13 days; read-out: Percentage damage SETFA
Method in brief: as §6

[34] = system: Alopecurus myosuroides (ALOMY); assay: Pre-emergence biological efficacy (Example 13); assay type: in vivo; conditions: Alopecurus myosuroides, 312 h; pre-emergence, 1,000 g/ha, after 13 days; read-out: Percentage damage ALOMY
Method in brief: as §6

[35] = system: CHEAL Chenopodium album; assay: Post-emergence crop and weed test (Example 15); assay type: in vivo; conditions: 360 h, 30 g/ha, after 15 days, read-out: Percentage damage CHEAL
Method in brief: as §4

[36] = system: VERPE Veronica persica; assay: Post-emergence crop and weed test (Example 15); assay type: in vivo; conditions: 360 h, 30 g/ha, after 15 days, read-out: Percentage damage VERPE
Method in brief: as §4

Compound: C=Cc1c(N)nc(-c2ccc(Cl)c(OC)c2F)nc1C(=O)OC [Compound 2, 4-Amino-2-(4-chloro-2-fluoro-3-methoxy-phenyl)-5-ethenyl-6-methoxy-carbonyl-pyrimidine]
Percentage damage POLCO [1]: 20%
Percentage damage AMARE [2]: 40%
Percentage damage XANST [3]: 0%
Percentage damage IPOHE [4]: 30%
Percentage damage EPHHL [5]: 100%
Percentage damage SINAR [6]: 30%
Percentage damage GALAP [7]: 100%
Percentage damage GLXMA [8]: 20%
Percentage damage SIDSP [9]: 80%
Percentage damage CHEAL [10]: 70%
Percentage damage ABUTH [11]: 40%
Percentage damage KCHSC [12]: 100%
pest or weed control at 8 g/ha ([13]; 8 g/ha): 70%
pest or weed control at 8 g/ha ([14]; 8 g/ha): 80%
pest or weed control at 8 g/ha ([15]; 8 g/ha): 90%
pest or weed control at 8 g/ha ([16]; 8 g/ha): 90%
pest or weed control at 8 g/ha ([17]; 8 g/ha): 90%
pest or weed control at 8 g/ha ([18]; 8 g/ha): 10%
pest or weed control at 8 g/ha ([19]; 8 g/ha): 80%
plant injury at 8 g/ha ([20]; 8 g/ha): 60%
pest or weed control at 8 g/ha ([21]; 8 g/ha): 80%
pest or weed control at 8 g/ha ([22]; 8 g/ha): 80%
pest or weed control at 8 g/ha ([23]; 8 g/ha): 30%

melting point: 136 to 137 °C
Compound: C=Cc1c(N)nc(-c2ccc(Cl)c(N(C)C)c2F)nc1C(=O)OC [Compound 1]
pest or weed control at 1000 g/ha [24]: 90%
pest or weed control at 1000 g/ha [25]: 100%
pest or weed control at 1000 g/ha [26]: 100%
pest or weed control at 1000 g/ha [27]: 100%
pest or weed control at 1000 g/ha [28]: 100%
pest or weed control at 1000 g/ha [29]: 90%
pest or weed control at 1000 g/ha [30]: 100%
pest or weed control at 1000 g/ha [31]: 100%
pest or weed control at 1000 g/ha [32]: 90%
pest or weed control at 1000 g/ha [33]: 90%
pest or weed control at 1000 g/ha [34]: 80%
pest or weed control at 30 g/ha ([13]; 30 g/ha): 90%
pest or weed control at 30 g/ha ([14]; 30 g/ha): 100%
pest or weed control at 30 g/ha ([15]; 30 g/ha): 100%
pest or weed control at 30 g/ha ([16]; 30 g/ha): 40%
pest or weed control at 30 g/ha ([17]; 30 g/ha): 90%
pest or weed control at 30 g/ha ([18]; 30 g/ha): 10%
pest or weed control at 30 g/ha ([19]; 30 g/ha): 20%
plant injury at 30 g/ha ([20]; 30 g/ha): 0%
pest or weed control at 30 g/ha ([21]; 30 g/ha): 60%
pest or weed control at 30 g/ha [35]: 90%
pest or weed control at 30 g/ha ([22]; 30 g/ha): 90%
pest or weed control at 30 g/ha ([23]; 30 g/ha): 80%
pest or weed control at 30 g/ha [36]: 80%
